Test results published in US11524966B1 (Valo Early Discovery, Inc., priority 2017, dated 2022).

The compounds below were run against T1, USP25 (USP25-His6, Boston Biochem E-546) (Homo sapiens, UniProt Q9UHP3) (assay: Ubiquitin-Rhodamine 110 Assay for USP25 Activity, Example A-2). Conditions: Ubiquitin-Rhodamine 110 assay, Example A-2; read-out: USP25 A-2 IC50 range.
T1 construct: His6; purchased Boston Biochem E-546
T1 sequence (Q9UHP3 1-1055): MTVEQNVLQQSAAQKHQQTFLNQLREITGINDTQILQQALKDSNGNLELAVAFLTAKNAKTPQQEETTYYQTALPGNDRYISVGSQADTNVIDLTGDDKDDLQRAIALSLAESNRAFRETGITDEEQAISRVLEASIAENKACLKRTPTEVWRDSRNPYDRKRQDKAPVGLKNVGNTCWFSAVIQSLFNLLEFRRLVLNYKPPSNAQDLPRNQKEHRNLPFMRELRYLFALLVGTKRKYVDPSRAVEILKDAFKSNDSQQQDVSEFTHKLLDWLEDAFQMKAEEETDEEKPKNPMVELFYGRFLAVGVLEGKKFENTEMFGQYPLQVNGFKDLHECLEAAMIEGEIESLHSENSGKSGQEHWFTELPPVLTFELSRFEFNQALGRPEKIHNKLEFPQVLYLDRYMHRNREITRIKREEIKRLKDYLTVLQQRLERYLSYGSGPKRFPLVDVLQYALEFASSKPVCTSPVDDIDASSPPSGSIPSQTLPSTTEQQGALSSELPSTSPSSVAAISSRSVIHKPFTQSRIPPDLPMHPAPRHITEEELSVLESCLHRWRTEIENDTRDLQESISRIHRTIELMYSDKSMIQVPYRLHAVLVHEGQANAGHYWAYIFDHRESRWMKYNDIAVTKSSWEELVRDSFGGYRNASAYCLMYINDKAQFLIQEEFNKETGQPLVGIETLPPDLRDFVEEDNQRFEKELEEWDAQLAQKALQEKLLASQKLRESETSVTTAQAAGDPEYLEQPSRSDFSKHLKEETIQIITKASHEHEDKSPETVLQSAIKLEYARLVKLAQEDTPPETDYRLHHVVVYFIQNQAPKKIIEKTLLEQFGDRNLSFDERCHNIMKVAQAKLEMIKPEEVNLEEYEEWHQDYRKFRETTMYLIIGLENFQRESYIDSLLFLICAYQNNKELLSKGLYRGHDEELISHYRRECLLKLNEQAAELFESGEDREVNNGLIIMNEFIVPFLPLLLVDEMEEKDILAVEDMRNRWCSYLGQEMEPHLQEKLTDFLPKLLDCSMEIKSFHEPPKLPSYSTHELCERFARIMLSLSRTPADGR
Assay type: biochemical
Outline: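 Cleavage of ubiquitin-rhodamine 110 (25 nM, well below Km) by His-tagged USP25 at 75 pM is measured fluorimetrically after 45 min at room temperature and acid quench. Inhibitors are preincubated with enzyme for 30 minutes. IC50 values come from four-parameter logistic curve fitting.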

First: CO[C@H]1CN(c2cc3c(cc2C#N)C[C@@H](NC(=O)c2sc4nc(C)ccc4c2N)CC3)C[C@@H]1N [Example 201, 3-amino-N-[(2S)-6-[(3S,4S)-3-amino-4-methoxypyrrolidin-1-yl]-7-cyano-1,2,3,4-tetrahydronaphthalen-2-yl]-6-methylthieno[2,3-b]pyridine-2-carboxamide]
Second: CO[C@H]1CN(c2cc3c(cc2C#N)C[C@@H](NC(=O)c2sc4nc(C)ccc4c2N)CO3)C[C@@H]1N [Example 177, 3-amino-N-[(3R)-7-[(3S,4S)-3-amino-4-methoxypyrrolidin-1-yl]-6-cyano-3-4-dihydro-2H-1-benzopyran-3-yl]-6-methylthieno[2,3-b]pyridine-2-carboxamide]
The IC50 of the first is higher: 200 to 2000 nM for the first, 50 to 200 nM for the second. The second is the more potent here.

`Cc1ccc2c(N)c(C(=O)N[C@H]3COc4cc(N5CCC[C@H]6CNC[C@H]65)ccc4C3)sc2n1` [Example 243, N-[(3R)-7-[(4aS,7aS)-octahydro-1H-pyrrolo[3,4-b]pyridin-1-yl]-3,4-dihydro-2H-1-benzopyran-3-yl]-3-amino-6-methylthieno[2,3-b]pyridine-2-carboxamide] and `Cc1ccc2c(N)c(C(=O)N[C@H]3COc4cc(N5CC[C@@H]6CC[C@@H](N)C[C@@H]65)ccc4C3)sc2n1` [Example 233, N-[(3R)-7-[(3aS,6R,7aS)-6-amino-octahydro-1H-indol-1-yl]-3,4-dihydro-2H-1-benzopyran-3-yl]-3-amino-6-methylthieno[2,3-b]pyridine-2-carboxamide] fall in the same range of IC50: 1 to 50 nM for the first, 1 to 50 nM for the second.

`Cc1ccc2c(N)c(C(=O)N[C@@H]3Cc4ccc(N5CCNCC5)nc4[C@@H](C)C3)sc2n1` (single isomer, unassigned) [Example 205] and `Cc1ccc2c(N)c(C(=O)N[C@H]3Cc4ccc(N5CCNCC5)nc4[C@@H](C)C3)sc2n1` [Example 206, 3-amino-6-methyl-N-[(6R,8S)-8-methyl-2-(piperazin-1-yl)-5,6,7,8-tetrahydroquinolin-6-yl]thieno[2,3-b]pyridine-2-carboxamide] cannot be ordered by IC50: greater than 2000 nM for the first, greater than 2000 nM for the second.

`COC[C@@H]1C[C@@H](N)CN1c1ccc2c(c1)OC[C@H](NC(=O)c1sc3nc(C)ccc3c1N)C2` [Example 260, 3-amino-N-[(3R)-7-[(25,4R)-4-amino-2-(methoxymethyl)pyrrolidin-1-yl]-3,4-dihydro-2H-1-benzopyran-3-yl]-6-methylthieno[2,3-b]pyridine-2-carboxamide] and `Cc1ccc2c(N)c(C(=O)N[C@H]3COc4cc(N5C[C@H](N)CC[C@@H]5C(F)(F)F)ccc4C3)sc2n1` [Example 244, 3-amino-N-[(3R)-7-[(2R,5R)-5-amino-2-(trifluoromethyl)piperidin-1-yl]-3,4-dihydro-2H-1-benzopyran-3-yl]-6-methylthieno[2,3-b]pyridine-2-carboxamide] fall in the same range of IC50: 1 to 50 nM for the first, 1 to 50 nM for the second.

Compared with `Cc1ccc2c(N)c(C(=O)N[C@H]3COc4cc(N5C6CNCC5COC6)ccc4C3)sc2n1` [Example 209, 3-amino-6-methyl-N-[(3R)-7-{3-oxa-7,9-diazabicyclo[3.3.1]nonan-9-yl}-3,4-dihydro-2H-1-benzopyran-3-yl]thieno[2,3-b]pyridine-2-carboxamide], `Cc1ccc2c(N)c(C(=O)N[C@H]3COc4cc(N5C[C@H](N)C6(COC6)C5)ccc4C3)sc2n1` [Example 258, 3-amino-N-[(3R)-7-[(8R)-8-amino-2-oxa-6-azaspiro[3.4]octan-6-yl]-3,4-dihydro-2H-1-benzopyran-3-yl]-6-methylthieno[2,3-b]pyridine-2-carboxamide] is higher in IC50: 1 to 50 nM for the first, 200 to 2000 nM for the second.

First: CO[C@H]1CN(c2ccc3c(c2C#N)CC[C@H](NC(=O)c2sc4nc(C)ccc4c2N)C3)C[C@@H]1N [Example 178, 3-amino-N-[(2S)-6-[(3S,4S)-3-amino-4-methoxypyrrolidin-1-yl]-5-cyano-1,2,3,4-tetrahydronaphthalen-2-yl]-6-methylthieno[2,3-b]pyridine-2-carboxamide]
Second: CO[C@H]1CN(c2cc3c(c(F)c2C#N)C[C@@H](NC(=O)c2sc4nc(C)ccc4c2N)CO3)C[C@@H]1N [Example 200]
The IC50 of the first is higher: 200 to 2000 nM for the first, 50 to 200 nM for the second.

`CCO[C@@H]1CN(c2ccc3c(n2)CC[C@H](NC(=O)c2sc4nc(C)ccc4c2N)C3)C[C@@H]1N` [Example 254, 3-amino-N-[(6S)-2-[(3S,4R)-3-amino-4-ethoxypyrrolidin-1-yl]-5,6,7,8-tetrahydroquinolin-6-yl]-6-methylthieno[2,3-b]pyridine-2-carboxamide] and `CO[C@@]1(C)CN(c2ccc3c(n2)CC[C@H](NC(=O)c2sc4nc(C)ccc4c2N)C3)C[C@@H]1N` [Example 210, 3-amino-N-[(6S)-2-[(3S,4S)-4-amino-3-methoxy-3-methylpyrrolidin-1-yl]-5,6,7,8-tetrahydroquinolin-6-yl]-6-methylthieno[2,3-b]pyridine-2-carboxamide] cannot be ordered by IC50: greater than 2000 nM for the first, greater than 2000 nM for the second.

Compared with `Cc1ccc2c(N)c(C(=O)N[C@H]3COc4cc(N5C[C@@H]6NCCC(F)(F)[C@@H]6C5)ccc4C3)sc2n1` [Example 237, N-[(3R)-7-[(4aR,7aR)-4,4-difluoro-octahydro-1H-pyrrolo[3,4-b]pyridin-6-yl]-3,4-dihydro-2H-1-benzopyran-3-yl]-3-amino-6-methylthieno[2,3-b]pyridine-2-carboxamide], `Cc1ccc2c(N)c(C(=O)N[C@H]3COc4cc(N5C[C@H](N)CC[C@H]5C(F)(F)F)ccc4C3)sc2n1` [Example 247, 3-amino-N-[(3R)-7-[(2S,5R)-5-amino-2-(trifluoromethyl)piperidin-1-yl]-3,4-dihydro-2H-1-benzopyran-3-yl]-6-methylthieno[2,3-b]pyridine-2-carboxamide] is lower in IC50: 200 to 2000 nM for the first, 50 to 200 nM for the second.

First: Cc1ccc2c(N)c(C(=O)N[C@H]3COc4cc(N5CC[C@@H]6CNC[C@@H]65)cc(F)c4C3)sc2n1 [Example 221, N-[(3R)-7-[(3aR,6aR)-octahydropyrrolo[2,3-c]pyrrol-1-yl]-5-fluoro-3,4-dihydro-2H-1-benzopyran-3-yl]-3-amino-6-methylthieno[2,3-b]pyridine-2-carboxamide]
Second: Cc1ccc2c(N)c(C(=O)N[C@H]3COc4cc(N5CC[C@H]6CC[C@H](N)C[C@H]65)ccc4C3)sc2n1 [Example 232, N-[(3R)-7-[(3aR,6S,7aR)-6-amino-octahydro-1H-indol-1-yl]-3,4-dihydro-2H-1-benzopyran-3-yl]-3-amino-6-methylthieno[2,3-b]pyridine-2-carboxamide]
The IC50 of the first is higher: 200 to 2000 nM for the first, 50 to 200 nM for the second.

`N#Cc1c(N2CC3CCC(C2)N3)cc(F)c2c1CC[C@H](NC(=O)c1cnc3c(c1)[C@@H]1C[C@@H]1CN3)C2` [Example 195, (6aS,7aR)-N-[(2S)-5-cyano-6-{3,8-diazabicyclo[3.2.1]octan-3-yl}-8-fluoro-1,2,3,4-tetrahydronaphthalen-2-yl]-5H,6H,6aH,7H,7aH-cyclopropa[c]1,8-naphthyridine-2-carboxamide] and `CO[C@H]1CN(c2cc3c(c(F)c2C#N)C[C@@H](NC(=O)c2sc4nc(C)cnc4c2N)CO3)C[C@@H]1N` [Example 199, 7-amino-N-[(3R)-7-[(3S,4S)-3-amino-4-methoxypyrrolidin-1-yl]-6-cyano-5-fluoro-3,4-dihydro-2H-1-benzopyran-3-yl]-3-methylthieno[2,3-b]pyrazine-6-carboxamide] fall in the same range of IC50: 50 to 200 nM for the first, 50 to 200 nM for the second.

With `CO[C@H]1CN(c2ccc3c(n2)OC[C@H](NC(=O)c2sc4nc(C)cnc4c2N)C3)C[C@@H]1N` [Example 181, 7-amino-N-[(3R)-7-[(3S,4S)-3-amino-4-methoxypyrrolidin-1-yl]-2H,3H,4H-pyrano[2,3-b]pyridin-3-yl]-3-methylthieno[2,3-b]pyrazine-6-carboxamide] the IC50 was greater than 2000 nM.
